Results published in patent publication US8383629B2, “Inhibitors of 11β-hydroxysteroid dehydrogenase type 1” (Vitae Pharmaceuticals, Inc., priority 2008, dated 2013).

Biological target: T1, human 11β-HSD1 (Homo sapiens, UniProt P28845)
T1 construct: expressed in transfected cells; host or cells: CHO cells (microsomes)
Assay: Inhibition of microsomal preparation of 11β-HSD1 (SPA, Biological Test Example 1)
Assay type: biochemical
Settings: for inhibition at 0.111 µM: 111 nM; for IC50: microsomes from CHO cells overexpressing human 11β-HSD1, read-out: IC50 Range; for inhibition at 0.1 µM: 100 nM
In short: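 Microsomes from CHO cells overexpressing human 11β-HSD1 reduced [3H]cortisone (160 nM in substrate solution, with 2 mM NADPH, HEPES pH 7.4) for 90 min at rt after a 10 min compound preincubation. Compounds were run as 8-point half-log DMSO dilutions from 0.1 mM. 18β-glycyrrhetinic acid stopped the reaction, and anti-cortisol antibody SPA beads read [3H]cortisol.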

T1 sequence (P28845 whole entry): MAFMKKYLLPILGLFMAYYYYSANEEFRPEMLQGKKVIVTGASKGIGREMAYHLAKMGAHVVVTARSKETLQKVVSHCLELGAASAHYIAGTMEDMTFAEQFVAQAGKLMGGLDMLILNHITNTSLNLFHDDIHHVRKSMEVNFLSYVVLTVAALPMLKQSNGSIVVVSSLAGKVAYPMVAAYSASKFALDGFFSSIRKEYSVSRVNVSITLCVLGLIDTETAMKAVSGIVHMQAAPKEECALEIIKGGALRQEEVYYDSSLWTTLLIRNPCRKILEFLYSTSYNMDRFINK

| Structure (SMILES) | inhibition at 0.111 µM [%] | IC50 [nM] | inhibition at 0.1 µM [%] |
| --- | --- | --- | --- |
| COc1ccc2c(c1)CCNC21CCN(C(=O)CCc2ccccc2C(F)(F)F)CC1 [EXAMPLE 62, 1-(6-methoxy-3,4-dihydro-2H-spiro[isoquinoline-1,4′-piperidine]-1′-yl)-3-(2-(trifluoromethyl)phenyl)propan-1-one] | 87.2 | < 100 | – |
| COc1ccc2c(c1)CCNC21CCN(C(=O)CCc2ccccc2C)CC1 [EXAMPLE 63, 1-(6-methoxy-3,4-dihydro-2H-spiro[isoquinoline-1,4′-piperidine]-1′-yl)-3-o-tolylpropane-1-one] | 22.5 | 100 to 1000 | – |
| O=C(CCc1ccccc1C(F)(F)F)N1CCC2(CC1)CC(O)c1cccc(Br)c12 (stereo not shown) [EXAMPLE 64, 1-(7-bromo-3-hydroxy-2,3-dihydrospiro[indene-1,4′-piperidine]-1′-yl)-3-(2-(trifluoromethyl)phenyl)propan-1-one] | 100 | < 100 | – |
| O=C1NC2(CCN(C(=O)CCc3ccccc3C(F)(F)F)CC2)c2c(Cl)cccc21 [EXAMPLE 65, 7-chloro-1′-(3-(2-(trifluoromethyl)phenyl)propanoyl)spiro[isoindoline-1,4′-piperidin]-3-one] | 87.7 | < 100 | – |
| NC1CC2(CCN(C(=O)CCc3ccccc3C(F)(F)F)CC2)c2c(Br)cccc21 (stereo not shown) [EXAMPLE 66, 1-(3-amino-7-bromo-2,3-dihydrospiro[indene-1,4′-piperidine]-1′-yl)-3-(2-(trifluoromethyl)phenyl)propan-1-one] | 92.1 | < 100 | – |
| O=C(CCc1ccccc1C(F)(F)F)N1CCC2(CC1)C(=O)Nc1ccccc12 [EXAMPLE 67, 1′-(3-(2-(trifluoromethyl)phenyl)propanoyl)spiro[indoline-3,4′-piperidin]-2-one] | – | < 100 | 100 |
| CNC(=O)N1Cc2ccccc2C2(CCN(C(=O)CCc3ccccc3C(F)(F)F)CC2)C1 [EXAMPLE 68, N-methyl-1′-(3-(2-(trifluoromethyl)phenyl)propanoyl)-1H-spiro[isoquinoline-4,4′-piperidine]-2(3H)-carboxamide] | 81.5 | < 100 | – |
| CN1C(=O)C2(CCN(C(=O)CCc3ccccc3C(F)(F)F)CC2)c2ccccc21 [EXAMPLE 69, 1-methyl-1′-(3-(2-(trifluoromethyl)phenyl)propanoyl)spiro[indoline-3,4′-piperidin]-2-one] | 93.8 | < 100 | 93.5 |
| O=C1NC2(CCN(C(=O)CCc3ccccc3C(F)(F)F)CC2)c2c(Br)cccc21 [EXAMPLE 71, 7-bromo-1′-(3-(2-(trifluoromethyl)phenyl)propanoyl)spiro[isoindoline-1,4′-piperidin]-3-one] | 93.9 | < 100 | – |
| O=C1NC2(CCN(C(=O)CCc3ccccc3C(F)(F)F)CC2)c2c(Cl)cc(Cl)cc21 [EXAMPLE 72, 5,7-dichloro-1′-(3-(2-(trifluoromethyl)phenyl)propanoyl)spiro[isoindoline-1,4′-piperidin]-3-one] | 82.4 | < 100 | – |
| O=C(O)CC1CC2(CCN(C(=O)CCc3ccccc3C(F)(F)F)CC2)c2c(Cl)cccc21 (stereo not shown) [EXAMPLE 73, 2-(7-chloro-1′-(3-(2-(trifluoromethyl)phenyl)propanoyl)-2,3-dihydrospiro[indene-1,4′-piperidine]-3-yl)acetic acid] | 95.4 | < 100 | 96.6 |
| O=C(O)CC1CC2(CCN(C(=O)CCc3ccccc3Cl)CC2)c2c(Cl)cccc21 (stereo not shown) [EXAMPLE 74, 2-(7-chloro-1′-(3-(2-chlorophenyl)propanoyl)-2,3-dihydrospiro[indene-1,4′-piperidine]-3-yl)acetic acid] | 89.5 | < 100 | – |
| O=C(O)CC1CC2(CCN(C(=O)CCc3ccc(Cl)cc3Cl)CC2)c2c(Cl)cccc21 (stereo not shown) [EXAMPLE 75, 2-(7-chloro-1′-(3-(2,4-dichlorophenyl)propanoyl)-2,3-dihydrospiro[indene-1,4′-piperidine]-3-yl)acetic acid] | 52.2 | < 100 | – |
| COC(=O)c1ccc2c(c1)C1(CCN(C(=O)CCc3ccccc3C(F)(F)F)CC1)C(=O)N2C [EXAMPLE 76, 1-methyl-2-oxo-1′-(3-(2-(trifluoromethyl)phenyl)propanoyl)spiro[indoline-3,4′-piperidine]-5-carboxylate] | 60 | < 100 | – |
| CN1C(=O)C2(CCN(C(=O)CCc3ccccc3C(F)(F)F)CC2)c2cc(C(N)=O)ccc21 [EXAMPLE 77, 1-methyl-2-oxo-1′-(3-(2-(trifluoromethyl)phenyl)propanoyl)spiro[indoline-3,4′-piperidine]-5-carboxamide] | 26.3 | 100 to 1000 | – |
| CCN1C(=O)C2(CCN(C(=O)CCc3ccccc3C(F)(F)F)CC2)c2cc(C(=O)OC)ccc21 [EXAMPLE 78, Methyl 1-ethyl-2-oxo-1′-(3-(2-(trifluoromethyl)phenyl)propanoyl)spiro[indoline-3,4′-piperidine]-5-carboxylate] | 52.4 | < 100 | – |

| Structure (SMILES) | inhibition at 0.111 µM [%] | IC50 [nM] | inhibition at 0.1 µM [%] |
| --- | --- | --- | --- |
| CN1C(=O)C2(CCN(C(=O)CCc3ccccc3C(F)(F)F)CC2)c2cc(C#N)ccc21 [EXAMPLE 79, 1-methyl-2-oxo-1′-(3-(2-(trifluoromethyl)phenyl)propanoyl)spiro[indoline-3,4′-piperidine]-5-carbonitrile] | 51.4 | 100 to 1000 | – |
| NC(=O)CC1CC2(CCN(C(=O)CCc3ccccc3C(F)(F)F)CC2)c2c(Cl)cccc21 (stereo not shown) [EXAMPLE 80, 2-(7-chloro-1′-(3-(2-(trifluoromethyl)phenyl)propanoyl)-2,3-dihydrospiro[indene-1,4′-piperidine]-3-yl)acetamide] | 95.1 | < 100 | – |
| CCOC(=O)CC1CC2(CCN(C(=O)N(CC)Cc3c(F)cccc3Cl)CC2)c2c(Br)cccc21 (stereo not shown) [EXAMPLE 81] | 59.2 | < 100 | – |
| CCOC(=O)CC1CC2(CCN(C(=O)NCc3ccccc3OCC)CC2)c2c(Br)cccc21 (stereo not shown) [EXAMPLE 82, Ethyl 2-(7-bromo-1′-(2-ethoxybenzylcarbamoyl)-2,3-dihydrospiro[indene-1,4′-piperidine]-3-yl)acetate] | 28.6 | 100 to 1000 | – |
| O=C(O)CC1CC2(CCN(C(=O)NCc3cc(F)c(F)cc3F)CC2)c2c(Br)cccc21 (stereo not shown) [EXAMPLE 83, 2-(7-bromo-1′-(2,4,5-trifluorobenzylcarbamoyl)-2,3-dihydrospiro[indene-1,4′-piperidine]-3-yl)acetic acid] | 10.9 | 100 to 1000 | – |
| CCOc1ccccc1CNC(=O)N1CCC2(CC1)CC(CC(=O)O)c1cccc(Br)c12 (stereo not shown) [EXAMPLE 84, 2-(7-bromo-1′-(2-ethoxybenzylcarbamoyl)-2,3-dihydrospiro[indene-1,4′-piperidine]-3-yl)acetic acid] | 42.6 | 100 to 1000 | – |
| O=C(NCc1ccccc1-c1ccccc1)N1CCC2(CC1)OCc1ccccc12 [EXAMPLE 85, N-(biphenyl-2-ylmethyl)-3H-spiro[isobenzofuran-1,4′-piperidine]-1′-carboxamide] | 19.4 | 100 to 1000 | – |
| CCOC(=O)CC1CC2(CCN(C(=O)NCc3ccccc3C)CC2)c2c(Br)cccc21 (stereo not shown) [EXAMPLE 86, Ethyl 2-(7-bromo-1′(2-methylbenzylcarbamoyl)-2,3-dihydrospiro[indene-1,4′-piperidine]-3-yl)acetate] | 58.7 | < 100 | – |
| Cc1ccccc1CNC(=O)N1CCC2(CC1)CC(CC(=O)O)c1cccc(Br)c12 (stereo not shown) [EXAMPLE 87, 2-(7-bromo-1′-(2-methylbenzylcarbamoyl)-2,3-dihydrospiro[indene-1,4′-piperidine]-3-yl)acetic acid] | 57.2 | < 100 | – |
| Cc1ccccc1CNC(=O)N1CCC2(CC1)CC(CC(=O)N1CCN(C(=O)OC(C)(C)C)CC1)c1cccc(Br)c12 (stereo not shown) [EXAMPLE 88, tert-butyl 4-(2-(7-bromo-1′-(2-methylbenzylcarbamoyl)-2,3-dihydrospiro[indene-1,4′-piperidine]-3-yl)acetyl)piperazine-1-carboxylate] | 66.2 | < 100 | – |
| CCOC(=O)CC1CC2(CCN(C(=O)NCc3c(C)cccc3Cl)CC2)c2c(Br)cccc21 (stereo not shown) [EXAMPLE 89, Ethyl 2-(7-bromo-1′-(2-chloro-6-methylbenzylcarbamoyl)-2,3-dihydrospiro[indene-1,4′-piperidine]-3-yl)acetate] | 61.2 | < 100 | – |
| Cc1ccccc1CNC(=O)N1CCC2(CC1)CC(CC(=O)N1CCNCC1)c1cccc(Br)c12 (stereo not shown) [EXAMPLE 90, 7-bromo-N-(2-methylbenzyl)-3-(2-oxo-2-(piperazin-1-yl)ethyl)-2,3-dihydrospiro[indene-1,4′-piperidine]-1′-carboxamide] | 52.4 | 100 to 1000 | – |
| Cc1cccc(Cl)c1CNC(=O)N1CCC2(CC1)CC(CC(=O)O)c1cccc(Br)c12 (stereo not shown) [EXAMPLE 91, 2-(7-bromo-1′-(2-chloro-6-methylbenzylcarbamoyl)-2,3-dihydrospiro[indene-1,4′-piperidine]-3-yl)acetic acid] | 64.1 | < 100 | – |
| CCOC(=O)CC1CC2(CCN(C(=O)NCc3ccccc3C(F)(F)F)CC2)c2c(Br)cccc21 (stereo not shown) [EXAMPLE 92, Ethyl 2-(7-bromo-1′-(2-(trifluoromethyl)benzylcarbamoyl)-2,3-dihydrospiro[indene-1,4′-piperidine]-3-yl)acetate] | 70.5 | < 100 | – |
| CCOC(=O)CC1CC2(CCN(C(=O)NCc3ccccc3S(C)(=O)=O)CC2)c2c(Br)cccc21 (stereo not shown) [EXAMPLE 93, Ethyl 2-(7-bromo-1′-(2-(methylsulfonyl)benzylcarbamoyl)-2,3-dihydrospiro[indene-1,4′-piperidine]-3-yl)acetate] | 18.5 | 100 to 1000 | – |
